# In US11850234B2, “Enhancement of cancer treatment efficiency via the sphingosine-1-phosphate pathway” (priority 2017, dated 2023):
# Legend:
# [1] = tested on: CAM-grafted pancreas, lung and ovarian tumors; assay: Neoadjuvant effect in the CAM (Chicken Chorioallantoic Model) with grafted tumors; format: in vivo; conditions: compared to CAM-grafted tumors not previously treated with the neoadjuvants
# Experimental: The neoadjuvant effect of benzylphthalazine and imidazole derivatives according to the present invention are assessed for their neoadjuvant effect against pancreas, lung and ovarian tumors.
# The neoadjuvant effect is evaluated using the CAM (Chicken Chorioallantoic Model) as described by Sliwinska et al. (Sliwinska et al., Angiogenesis, 2014, 14(4), 779-804).
# [2] = tested on: pancreatic adenocarcinoma; assay: Overall survival of pancreatic adenocarcinoma patients under gemcitabine chemotherapy, by plasmatic S1P concentration; format: in vivo, human
# [3] = tested on: breast cancer metastatic cell line; conditions: 10 μM of S1P co-administered; cited from earlier work
Structure (SMILES),cytotoxic effect against CAM-grafted tumors pretreated with neoadjuvant [1],"overall survival median ([2]; conventional gemcitabine chemotherapy, plasmatic S1P higher than 650 nM versus lower, FIG. 3)","overall survival ([2]; patients having a high plasmatic S1P concentration (>650 nM), FIG. 5) [months]","effect on cytotoxicity of docetaxel, doxorubicin and cyclophosphamide [3]"
Nc1ccn([C@@H]2O[C@H](CO)[C@@H](O)C2(F)F)c(=O)n1 [gemcitabine],enhanced,better overall survival median,12.3,
"CCCCCCCCCCCCC/C=C/[C@@H](O)[C@@H](N)COP(=O)(O)O [S1P, Sphingosine-1-phosphate]",,,,increased the cytotoxicity
CC(=O)O[C@H]1C(=O)[C@@]2(C)[C@H]([C@H](OC(=O)c3ccccc3)[C@]3(O)C[C@H](OC(=O)[C@H](O)[C@@H](NC(=O)c4ccccc4)c4ccccc4)C(C)=C1C3(C)C)[C@]1(OC(C)=O)CO[C@@H]1C[C@@H]2O [paclitaxel],enhanced,,,
